Assay results: ChEMBL document CHEMBL5346920, “Development of the "hidden" multi-target-directed ligands by AChE/BuChE for the treatment of Alzheimer's disease” (Eur J Med Chem, 2023)
Calls of active or inactive are those of the source. No cut-off for these calls is given here.

What was measured:
Danio rerio [1] = organism: Danio rerio; assay: Antialzheimer activity against AlCl3-induced Alzheimer's disease zebra fish model assessed as total distance moved at 0.0049 ug/ml treated for 24 hrs and measured after 24 hrs under dark environment (reference value: 312 cm); assay type: functional; conditions: dose 0.0049 µg/ml; time 48 hrs
Acetylcholinesterase [2] = target: T1, Acetylcholinesterase (Electrophorus electricus, UniProt O42275); assay: Drug metabolism assessed as electric eel AChE-mediated 3-(4-fluorophenyl)-1-(2-hydroxyphenyl)prop-2-en-1-one formation treated at 150 mmol/L with 0.5U AChE and measured after 9 mins by HPLC analysis; assay type: ADME; conditions: 0.15 h
T1 sequence (O42275 whole entry): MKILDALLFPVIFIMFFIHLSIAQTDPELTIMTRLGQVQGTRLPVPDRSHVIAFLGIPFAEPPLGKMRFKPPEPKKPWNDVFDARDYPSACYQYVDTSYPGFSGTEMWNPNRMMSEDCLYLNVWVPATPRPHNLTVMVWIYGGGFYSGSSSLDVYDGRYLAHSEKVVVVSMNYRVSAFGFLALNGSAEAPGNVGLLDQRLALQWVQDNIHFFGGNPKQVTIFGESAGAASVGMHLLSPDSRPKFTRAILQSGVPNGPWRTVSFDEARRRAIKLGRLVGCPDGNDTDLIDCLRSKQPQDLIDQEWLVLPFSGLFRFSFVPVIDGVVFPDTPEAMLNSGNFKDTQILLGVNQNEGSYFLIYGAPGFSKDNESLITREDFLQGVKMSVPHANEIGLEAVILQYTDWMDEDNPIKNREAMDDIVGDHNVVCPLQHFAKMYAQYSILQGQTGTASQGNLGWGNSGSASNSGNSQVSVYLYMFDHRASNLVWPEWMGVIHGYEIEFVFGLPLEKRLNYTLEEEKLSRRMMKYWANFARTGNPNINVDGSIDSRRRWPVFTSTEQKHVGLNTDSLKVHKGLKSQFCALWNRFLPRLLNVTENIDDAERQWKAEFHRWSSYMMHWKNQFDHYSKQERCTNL

Danio rerio [3] = organism: Danio rerio; assay: Antialzheimer activity against AlCl3-induced Alzheimer's disease zebra fish model assessed as total distance moved at 0.0049 ug/ml treated for 24 hrs and measured after 24 hrs measured under light environment (reference value: 230 cm); assay type: functional; conditions: dose 0.0049 µg/ml; time 48 hrs
PC-12 [4] = assay: Neuroprotective activity against Amyloid beta(25 to 35)-induced cell injury in rat PC12 cells assessed as cell viability at 5 uM pretreated for 2 hrs followed by incubation with Abeta(25 to 35) for 24 hrs by CCK-8 assay (reference value: 41 to 58.6%); assay type: functional; conditions: time 26 hrs, read-out: Activity
Homo sapiens = organism: Homo sapiens; assay: Selectivity index, ratio of IC50 for inhibition of human recombinant MAO-A expressed in baculovirus-infected BTI cells to IC50 for inhibition of human recombinant MAO-B expressed in baculovirus-infected BTI cells
Danio rerio [5] = organism: Danio rerio; assay: Antialzheimer activity against AlCl3-induced Alzheimer's disease zebra fish model assessed as total distance moved at 0.078 ug/ml treated for 24 hrs and measured after 24 hrs under alternating light dark stimuli conditions (reference value: 543 cm); assay type: functional; conditions: dose 0.078 µg/ml; time 48 hrs
[6] = Acute toxicity in zebra fish assessed as maximum non-lethal dose; set-up: species or system Danio rerio; conditions: zebrafish
Danio rerio [7] = organism: Danio rerio; assay: Antialzheimer activity against AlCl3-induced Alzheimer's disease zebra fish model assessed as total distance moved at 0.078 ug/ml treated for 24 hrs and measured after 24 hrs under light environment (reference value: 230 cm); assay type: functional; conditions: dose 0.078 µg/ml; time 48 hrs
Acetylcholinesterase [8] = target: T1, Acetylcholinesterase; assay: Drug metabolism assessed as electric eel AChE-mediated 3-(4-fluorophenyl)-1-(2-hydroxyphenyl)prop-2-en-1-one formation by measuring decarbamoylation rate constant treated with 0.25U AChE for 9 mins by HPLC analysis; assay type: ADME; conditions: 0.15 h
[9] = target: T2, Amine oxidase [flavin-containing] A (Homo sapiens, UniProt P21397); assay: Inhibition of human recombinant MAO-A expressed in baculovirus-infected BTI cells using kynuramine as substrate incubated for 30 mins by fluorescence based analysis
T2 sequence (P21397 whole entry): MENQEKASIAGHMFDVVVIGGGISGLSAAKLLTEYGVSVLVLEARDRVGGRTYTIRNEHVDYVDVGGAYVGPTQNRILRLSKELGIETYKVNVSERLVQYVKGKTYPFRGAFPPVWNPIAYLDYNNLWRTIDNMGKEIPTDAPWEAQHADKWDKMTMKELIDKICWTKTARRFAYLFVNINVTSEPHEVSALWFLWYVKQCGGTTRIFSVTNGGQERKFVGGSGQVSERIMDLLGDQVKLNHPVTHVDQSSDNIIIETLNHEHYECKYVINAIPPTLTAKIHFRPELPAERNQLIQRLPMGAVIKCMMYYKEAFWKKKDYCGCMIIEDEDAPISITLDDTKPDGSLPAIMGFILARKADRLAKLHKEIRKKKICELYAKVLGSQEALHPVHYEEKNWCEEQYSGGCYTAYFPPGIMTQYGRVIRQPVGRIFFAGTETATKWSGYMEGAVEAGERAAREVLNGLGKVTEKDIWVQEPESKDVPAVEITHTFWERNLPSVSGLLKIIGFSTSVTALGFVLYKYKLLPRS

[10] = Acute toxicity in zebra fish assessed as effect on liver median fluorescence intensity at 0.3125 to 1.25 ug/ml and measured at 120 hpf by microscopic analysis; set-up: species or system Danio rerio; conditions: zebrafish; dose 0.3125-1.25 µg/ml
[11] = target: Acetylcholinesterase (Electrophorus electricus) (UniProt O42275); assay: Reversible inhibition of electric eel AChE assessed as enzyme activity using acetylthiocholine iodide as substrate measured after dilution to 0.1XIC50 for 120 mins by Ellman's method; set-up: scale not given: the % may be the effect or the level left
Acetylcholinesterase (Electrophorus electricus), sequence (O42275 24-633 limits assumed): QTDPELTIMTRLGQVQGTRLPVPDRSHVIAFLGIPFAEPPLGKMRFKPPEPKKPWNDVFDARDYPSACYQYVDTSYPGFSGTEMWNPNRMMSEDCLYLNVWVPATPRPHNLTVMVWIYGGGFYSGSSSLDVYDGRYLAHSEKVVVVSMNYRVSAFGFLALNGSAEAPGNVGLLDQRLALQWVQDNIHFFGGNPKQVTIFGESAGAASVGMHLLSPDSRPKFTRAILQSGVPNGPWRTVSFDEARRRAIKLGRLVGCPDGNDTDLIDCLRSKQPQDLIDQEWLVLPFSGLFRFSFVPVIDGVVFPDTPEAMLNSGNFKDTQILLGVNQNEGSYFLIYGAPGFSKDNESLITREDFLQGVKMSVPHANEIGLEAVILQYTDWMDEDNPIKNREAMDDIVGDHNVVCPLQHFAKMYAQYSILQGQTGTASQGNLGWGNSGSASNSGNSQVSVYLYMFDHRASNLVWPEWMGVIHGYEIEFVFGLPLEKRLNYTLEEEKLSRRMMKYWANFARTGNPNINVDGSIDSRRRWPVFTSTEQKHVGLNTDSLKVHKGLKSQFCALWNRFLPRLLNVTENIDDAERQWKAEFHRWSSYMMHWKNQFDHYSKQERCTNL

Cholinesterase [12] = target: T3, Cholinesterase (Equus caballus, UniProt P81908); assay: Inhibition of equine serum BuChE using butyrylthiocholine chloride as substrate by Ellman's method; assay type: cell-free
T3 sequence (P81908 whole entry): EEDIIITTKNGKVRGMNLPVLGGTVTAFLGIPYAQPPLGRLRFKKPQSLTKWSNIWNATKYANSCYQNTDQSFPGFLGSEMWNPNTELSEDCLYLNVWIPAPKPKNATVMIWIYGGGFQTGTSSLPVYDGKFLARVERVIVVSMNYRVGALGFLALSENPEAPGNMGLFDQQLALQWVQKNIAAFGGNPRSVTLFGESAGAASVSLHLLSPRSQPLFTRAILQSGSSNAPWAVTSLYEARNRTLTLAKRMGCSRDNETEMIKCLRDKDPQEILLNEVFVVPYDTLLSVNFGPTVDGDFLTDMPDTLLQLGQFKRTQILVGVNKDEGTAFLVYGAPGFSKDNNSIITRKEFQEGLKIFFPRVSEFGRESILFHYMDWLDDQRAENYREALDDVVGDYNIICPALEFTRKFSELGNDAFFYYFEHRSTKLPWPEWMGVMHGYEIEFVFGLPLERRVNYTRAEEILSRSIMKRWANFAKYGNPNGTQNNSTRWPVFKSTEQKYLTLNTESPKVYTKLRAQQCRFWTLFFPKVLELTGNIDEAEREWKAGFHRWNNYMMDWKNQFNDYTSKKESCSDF

[13] = Acute toxicity in zebra fish assessed as decrease in swim bladder area at 2.5 ug/ml and measured at 120 hpf by microscopic analysis; set-up: species or system Danio rerio; conditions: zebrafish; dose 2.5 µg/ml
[14] = Metal chelating activity assessed as compound-Al3+ complex formation by measuring maximum absorption wavelength shift from 316 to 434 nm at 37.5 uM incubated for 30 mins in presence of AlCl3 by UV-Vis spectrometry
[15] = Acute toxicity in zebra fish assessed as effect on liver fluorescence area at 0.3125 to 1.25 ug/ml and measured at 120 hpf by microscopic analysis; set-up: species or system Danio rerio; conditions: zebrafish; dose 0.3125-1.25 µg/ml
[16] = Permeability of the compound at 100 ug/ml incubated for 18 hrs by PAMPA assay; assay type: ADME; conditions: dose 100 µg/ml, read-out: permeability
Danio rerio [17] = organism: Danio rerio; assay: Neuroprotective activity against AlCl3-induced Alzheimer's disease zebra fish model assessed as distance velocity at 0.0195 ug/ml treated for 24 hrs and measured after 24 hrs under light environment (reference value: 7.7 cm/min); assay type: functional; conditions: dose 0.0195 µg/ml; time 48 hrs
BV-2 [18] = assay: Cytotoxicity against mouse BV-2 cells assessed as reduction in cell viability at 10 uM by CCK8 assay; assay type: toxicity, cell-based; conditions: bv-2, 10 µM
Acetylcholinesterase [19] = target: T1, Acetylcholinesterase; assay: Drug metabolism assessed as electric eel AChE-mediated 3-(4-fluorophenyl)-1-(2-hydroxyphenyl)prop-2-en-1-one formation treated with 0.25U AChE for 9 mins by HPLC analysis; assay type: ADME; conditions: 0.15 h
Cholinesterase [20] = target: T3, Cholinesterase; assay: Drug metabolism assessed as equine serum BuChE-mediated 3-(4-fluorophenyl)-1-(2-hydroxyphenyl)prop-2-en-1-one formation treated at 150 mmol/L with 0.001U BuChE and measured after 9 mins by HPLC analysis; assay type: ADME, cell-free; conditions: horse, 0.15 h
BV-2 [21] = assay: Anti-inflammatory activity against LPS-stimulated mouse BV-2 cells assessed as inhibition of LPS-induced NO production incubated for 24 hrs in presence of LPS; assay type: functional, cell-based; conditions: dose 1-9 µM
BV-2 [22] = assay: Anti-inflammatory activity against LPS-stimulated mouse BV-2 cells assessed as inhibition of LPS-induced IL-1 beta production incubated for 24 hrs in presence of LPS; assay type: functional, cell-based; conditions: dose 1-9 µM
[23] = target: Cholinesterase (Equus caballus) (UniProt P81908); assay: Reversible inhibition of equine serum BuChE assessed as enzyme activity using butyrylthiocholine chloride as substrate measured after dilution to 0.1XIC50 for 240 mins by Ellman's method; assay type: cell-free; set-up: scale not given: the % may be the effect or the level left
Cholinesterase (Equus caballus), sequence (P81908 whole entry): as above

[24] = target: Cholinesterase (Equus caballus) (UniProt P81908); assay: Reversible inhibition of equine serum BuChE assessed as enzyme activity using butyrylthiocholine chloride as substrate measured after dilution to 0.1XIC50 by Ellman's method; assay type: cell-free; set-up: scale not given: the % may be the effect or the level left
[25] = Acute toxicity in zebra fish assessed as proportion of dead zebrafish at 5 to 10 ug/ml and measured every 24 hrs upto 120 hours post fertilization; set-up: species or system Danio rerio; conditions: in vivo, at 5 to 10 µg/mL, dose 5-10 µg/ml, read-out: Activity
PC-12 [26] = assay: Cytotoxicity against rat PC-12 cells assessed as cell viability at 40 uM by CCK-8 assay; assay type: toxicity, cell-based; conditions: pc-12, 40 µM

SMILES: CCN(C)C(=O)Oc1ccccc1C(=O)/C=C/c1ccc(F)cc1
- Activity (Danio rerio [1]): 391 cm
- Drug metabolism (Acetylcholinesterase [2]): 24.87 mmol/L
- Activity (Danio rerio [3]): 373 cm
- viability at 5 µM (PC-12 [4]): 70.9%
- Ratio IC50 (Homo sapiens): 20.1
- Activity (Danio rerio [5]): 763 cm
- Activity [6]: 2.5 µg/mL
- Activity (Danio rerio [7]): 226 cm
- K (Acetylcholinesterase [8]): 5.2 M⁻¹ s⁻¹
- IC50 [9]: 38.2 µM
- Activity [10]: Non-Toxic
- Activity [11]: 88.7%
- IC50 (Cholinesterase [12]): 12.4 µM
- Activity [13]: Toxic
- Activity [14]: inactive
- Activity [15]: Non-Toxic
- Papp at 18 h, 100 ug/ml [16]: 168 nm/s
- Activity (Danio rerio [17]): 11.5 cm/min
- Activity (BV-2 [18]): Non-Toxic
- Km (Acetylcholinesterase [19]): 85.3 µM
- Drug metabolism (Cholinesterase [20]): 2.52 mmol/L
- Activity (BV-2 [21]): Dose-Dependent Effect
- Activity (BV-2 [22]): Dose-Dependent Effect
- Activity [23]: 93.3%
- Activity [24]: 52.6%
- mortality [25]: 100%
- Activity (PC-12 [26]): Non-Toxic
